ChEMBL document CHEMBL1201862, “PubChem BioAssay data set” (2004)
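Tested at 5 concentrations; 48 h exposure; 96-well plates; endpoints linearly interpolated, else capped at highest concentration. GI50 marks 50% less growth.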 Activity calls are given as the source filed them. Cut-off read from the data, not from the text of the source: active = GI50 up to about 1.1 µM and inactive = higher.

What was measured:
Experiment in all cases: growth of human tumour cells (NCI), 48 h
[1] = test system: DLD-1
[2] = test system: DMS-114
[3] = test system: DMS-273
[4] = test system: HOP-18
[5] = test system: KM-20L2
[6] = test system: LXFL 529
[7] = test system: M19-MEL
[8] = test system: RXF 631
[9] = test system: XF498

Measured: GI50

COC1/C=C/OC2(C)Oc3c(C)c(O)c4c(c3C2=O)C(=O)C=C(NC(=O)/C(C)=C\C=C\C(C)C(OC=O)C(C)C(O)C(C)C(OC(C)=O)C1C)C4=O (stereo not given)
inactive: [1] 9.89 µM | [2] 16.8 µM | [3] 16.9 µM | [4] 5.36 µM | [5] 18.2 µM | [6] 6.5 µM | [7] 13.1 µM | [8] 15.7 µM | [9] 4 µM

CC(C)(C)c1cc(Oc2ccc(C#N)c(C#N)c2)cc(C(C)(C)C)c1
inactive: [1] > 100 µM | [2] 42.1 µM | [3] 14.1 µM | [4] > 100 µM | [5] > 100 µM | [6] > 100 µM | [7] > 100 µM | [8] 31 µM | [9] > 100 µM

O=C(CC(=O)Nc1cccc(Cl)c1)NNCC(=O)Nc1nnc(-c2ccccc2)s1
inactive: [1] 58.6 µM | [2] 24.4 µM | [3] 38.4 µM | [4] 3.62 µM | [5] > 100 µM | [6] 41.3 µM | [7] > 100 µM | [8] > 100 µM | [9] 17.7 µM

CCNC(=O)C#CC(=O)NCC
inactive: [1] > 46.1 µM | [2] > 72.3 µM | [3] 17.8 µM | [4] > 100 µM | [5] > 100 µM | [6] > 93.8 µM | [7] > 100 µM | [8] > 100 µM | [9] > 100 µM

C[C@]12CCC(=O)C=C1CC[C@@H]1[C@@H]2CC[C@]2(C)C(=O)NC(=O)C[C@@H]12
inactive: [1] > 100 µM | [2] > 100 µM | [3] > 100 µM | [4] > 100 µM | [5] > 100 µM | [6] > 100 µM | [7] > 100 µM | [8] > 100 µM | [9] > 100 µM
